In patent publication US8969325B2, “TRPV1 antagonists” (AbbVie Inc., priority 2011, dated 2015):

Columns and labels:
human TRPV1 [1] = biological target: T1, human TRPV1 (Homo sapiens (Human), UniProt Q8NER1); assay: Capsaicin Activation Assay (intracellular Ca2+, FLIPR); assay type: cell-based; conditions: recombinant HEK293 cells expressing hTRPV1, 50 nM capsaicin
Procedure: (Logan, Utah). Dulbecco's phosphate-buffered saline (D-PBS) (with 1 mg/mL glucose and 3.6 mg/l Na pyruvate, without phenol red), L-glutamine, hygromycin B, and Lipofectamine® were obtained from Life Technologies (Grand Island, N.Y.). G418 sulfate was obtained from Calbiochem-Novabiochem Corp. (San Diego, Calif.). […] (St. Louis, Mo.). […] The cDNA for human TRPV1 (hTRPV1) was isolated by reverse transcriptase-polymerase chain reaction (RT-PCR) from human small intestine poly A+ RNA supplied by Clontech (Palo Alto, Calif.) using primers designed surrounding the initiation and termination codons identical to the published sequences (Hayes et al. […] The resulting cDNA PCR products were subcloned into pCIneo mammalian expression vector (Promega) and fully sequenced using fluorescent dye-terminator reagents (Prism, PerkinElmer Applied Biosystems Division) and a PerkinElmer Applied Biosystems Model 373 DNA sequencer or Model 310 genetic analyzer. Expression plasmids encoding the hTRPV1 cDNA were transfected into HEK293 cells using Lipofectamine®. Forty-eight hours after transfection, the neomycin-resistant cells were selected with growth medium containing 800 μg/mL Geneticin (Life Technologies, formerly Gibco BRL). Surviving individual colonies were isolated and screened for TRPV1 activity. […] Compound stocks, 10 mM, were prepared in DMSO, and diluted serially across a 384-well plate using a Bravo BenchCel workstation (Agilent Technologies, Santa Clara, Calif.). […] On the day prior to the experiment, the recombinant HEK293 cells expressing human TRPV1 (hTRPV1) were removed from tissue culture flasks and plated in growth medium into black-walled clear-bottom 384-well Biocoat™ poly-D-lysine assay plates (BD Biosciences, Bedford, Mass.) using a Multidrop® dispenser (ThermoScientific, Waltham, Mass.). […] Molecular Devices, Sunnyvale, Calif.) was added to each well using the Multidrop® dispenser. […] Fluorescence readings were made at 1 to 5 second intervals over the course of the experimental run.

human TRPV1 [2] = biological target: T1, human TRPV1; assay: Acid Activation Assay (pH 5.0, intracellular Ca2+, FLIPR); assay type: cell-based; conditions: percentage of the maximal pH 5.0-induced response remaining; recombinant HEK293 hTRPV1 cells; maximum concentration tested 37.5 μM
Procedure: Dulbecco's modified Eagle's medium (DMEM) with 4.5 m g/mL D-glucose, fetal bovine serum, L-glutamine, and 2-morpholinoethanesulfonic acid (MES) were purchased from Sigma-Aldrich Co. (St. Louis, Mo.). Dulbecco's phosphate-buffered saline (DPBS) with Ca^2+, Mg^2+, and 1 mg/mL D-glucose (pH 7.4), Geneticin®, 0.25% trypsin-1 mM EDTA, and penicillin-streptomycin were purchased from Invitrogen Corp. (Carlsbad, Calif.). The FLIPR® Calcium 4 assay kit was purchased from Molecular Devices (Sunnyvale, Calif.).
The cDNA for human TRPV1 (hTRPV1) was isolated by reverse transcriptase-polymerase chain reaction (RT-PCR) from human small intestine poly A+ RNA supplied by Clontech (Palo Alto, Calif.) using primers designed surrounding the initiation and termination codons identical to the published sequences (Hayes et al. Pain 2000, 88, 205-215). The resulting cDNA PCR products were subcloned into pCIneo mammalian expression vector (Promega) and fully sequenced using fluorescent dye-terminator reagents (Prism, PerkinElmer Applied Biosystems Division) and a PerkinElmer Applied Biosystems Model 373 DNA sequencer or Model 310 genetic analyzer. Expression plasmids encoding the hTRPV1 cDNA were transfected into HEK293 cells using Lipofectamine®. Forty-eight hours after transfection, the neomycin-resistant cells were selected with growth medium containing 800 μg/mL Geneticin (Life Technologies, formerly Gibco BRL). Surviving individual colonies were isolated and screened for TRPV1 activity. Cells expressing recombinant TRPV1 were maintained at 37° C. in DMEM containing 4 mM L-glutamine, 300 μg/mL G418 (Calbiochem) and 10% fetal bovine serum under a humidified 5% CO2 atmosphere.
The functional activity of compounds at the TRPV1 receptor was determined by measurement of intracellular Ca^2+ levels ([Ca^2+]i) using the Fluorescence Imaging Plate Reader (FLIPR)TETRA®. All compounds were tested over a 12-point one-half-log concentration range with 37.5 μM being the maximum concentration tested. Compound stocks, 10 mM, were prepared in DMSO, and diluted serially across a 384-well plate using a Bravo BenchCel workstation (Agilent Technologies, Santa Clara, Calif.). On the day prior to the experiment, the recombinant HEK293 cells expressing human TRPV1 (hTRPV1) were removed from tissue culture flasks and plated in growth medium into black-walled clear-bottom 384-well Biocoat™ poly-D-lysine assay plates (BD Biosciences, Bedford, Mass.) using a Multidrop® dispenser (ThermoScientific, Waltham, Mass.). On the day of the experiment growth medium was removed, and the no-wash FLIPR® Calcium-4 dye (λEX=470-495 nm, λEM=515-575 nm) was added to each well using the Multidrop® dispenser. The plated cells were incubated for 90-120 min in the dark at 25° C. The test compounds dissolved in DMSO were then added to the plates using an Agilent Bravo workstation (Agilent Technologies Inc., Santa Clara, Calif.). Three minutes later, a pH 5.0 solution was added to each well. Reagents were delivered at a rate of 40 μL/sec, and the final assay volume was 80 μL. Acidic pH solutions were prepared by titration of DPBS/MES with 1 N HCl. The intensity of the fluorescence was captured and digitally transferred to an interfaced PC. The maximum peak measured for the concentration range tested was used to calculate the corresponding peak increase in fluorescence over baseline (relative fluorescence units) which was expressed as the percentage (max % remain) of the maximal pH 5.0-induced response.
Table 1 reports the percentage (max % remain) of the maximal pH 5.0-induced response measured for the compounds tested in the recombinant HEK293 cell assay. Most of the compounds tested inhibited calcium flux only partially following TRPV1 activation by the pH 5.0 solution.

T1 sequence (Q8NER1 whole entry): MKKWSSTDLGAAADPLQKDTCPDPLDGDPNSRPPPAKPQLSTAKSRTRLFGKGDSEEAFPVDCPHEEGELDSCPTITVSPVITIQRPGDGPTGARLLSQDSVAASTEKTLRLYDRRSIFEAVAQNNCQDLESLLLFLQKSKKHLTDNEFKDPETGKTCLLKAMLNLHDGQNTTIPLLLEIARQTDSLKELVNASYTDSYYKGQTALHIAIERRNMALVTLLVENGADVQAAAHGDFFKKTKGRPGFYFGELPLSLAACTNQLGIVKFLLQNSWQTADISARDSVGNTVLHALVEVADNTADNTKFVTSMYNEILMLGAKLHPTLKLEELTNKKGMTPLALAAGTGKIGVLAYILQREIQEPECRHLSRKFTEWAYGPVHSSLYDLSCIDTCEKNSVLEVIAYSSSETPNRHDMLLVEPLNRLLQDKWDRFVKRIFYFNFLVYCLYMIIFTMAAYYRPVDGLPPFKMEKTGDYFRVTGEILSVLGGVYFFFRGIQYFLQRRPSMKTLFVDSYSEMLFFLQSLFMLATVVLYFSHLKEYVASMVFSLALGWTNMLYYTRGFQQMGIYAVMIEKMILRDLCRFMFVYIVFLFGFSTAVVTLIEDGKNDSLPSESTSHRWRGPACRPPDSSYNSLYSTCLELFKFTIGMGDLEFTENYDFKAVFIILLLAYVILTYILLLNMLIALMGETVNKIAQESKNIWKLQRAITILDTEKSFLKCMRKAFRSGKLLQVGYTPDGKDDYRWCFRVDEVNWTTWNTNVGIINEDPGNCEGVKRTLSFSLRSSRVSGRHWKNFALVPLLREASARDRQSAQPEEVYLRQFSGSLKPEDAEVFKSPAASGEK

SMILES	IC50 (human TRPV1 [1]) [nM]	human TRPV1 H^+ (max % remain) (human TRPV1 [2]) [%]
CCC1(CC)C[C@@H](NC(=O)Nc2ccc3c(c2)NC(=O)N(CCO)C3)c2cc(F)ccc2O1 [Example 50, 1-[(4R)-2,2-diethyl-6-fluoro-3,4-dihydro-2H-chromen-4-yl]-3-[3-(2-hydroxyethyl)-2-oxo-1,2,3,4-tetrahydroquinazolin-7-yl]urea]	45	0
C[C@]1(C(F)(F)F)C[C@@H](NC(=O)Nc2ccc3c(c2)NC(=O)CO3)c2ccccc2O1 [Example 126, 1-[(2R,4R)-2-methyl-2-(trifluoromethyl)-3,4-dihydro-2H-chromen-4-yl]-3-(3-oxo-3,4-dihydro-2H-1,4-benzoxazin-6-yl)urea]	58	87
CN1C(=O)NCc2c(NC(=O)N[C@@H]3CC(C)(C)Oc4cc(OC(F)(F)F)ccc43)cccc21 [Example 137, 1-[(4R)-2,2-dimethyl-7-(trifluoromethoxy)-3,4-dihydro-2H-chromen-4-yl]-3-(1-methyl-2-oxo-1,2,3,4-tetrahydroquinazolin-5-yl)urea]	38	17
CC1(C)C[C@@H](NC(=O)Nc2ccc3c(c2)NC(=O)CO3)c2ccc(C(F)(F)F)cc2O1 [Example 106, 1-[(4R)-2,2-dimethyl-7-(trifluoromethyl)-3,4-dihydro-2H-chromen-4-yl]-3-(3-oxo-3,4-dihydro-2H-1,4-benzoxazin-6-yl)urea]	94	98
CCC1(CC)C[C@@H](NC(=O)Nc2cccc3c2CNC(=O)N3C)c2ccc(Cl)c(Cl)c2O1 [Example 147, 1-[(4R)-7,8-dichloro-2,2-diethyl-3,4-dihydro-2H-chromen-4-yl]-3-(1-methyl-2-oxo-1,2,3,4-tetrahydroquinazolin-5-yl)urea]	600	15
CC1(C)C[C@@H](NC(=O)Nc2ccc3c(c2)NC(=O)CO3)c2ccc(F)c(F)c2O1 [Example 117, 1-[(4R)-7,8-difluoro-2,2-dimethyl-3,4-dihydro-2H-chromen-4-yl]-3-(3-oxo-3,4-dihydro-2H-1,4-benzoxazin-6-yl)urea]	120	99
Cn1c(=O)ccc2c(NC(=O)N[C@H]3CCOc4cc(OC(F)(F)F)ccc43)cccc21 [Example 78, 1-(1-methyl-2-oxo-1,2-dihydroquinolin-5-yl)-3-[(4S)-7-(trifluoromethoxy)-3,4-dihydro-2H-chromen-4-yl]urea]	91	46
CN1C(=O)NCc2c(NC(=O)N[C@@H]3CC(C)(C)Oc4cc(Cl)ccc43)cccc21 [Example 6, 1-[(4R)-7-chloro-2,2-dimethyl-3,4-dihydro-2H-chromen-4-yl]-3-(1-methyl-2-oxo-1,2,3,4-tetrahydroquinazolin-5-yl)urea]	–	30
CCC1(CC)C[C@@H](NC(=O)Nc2cccc3c2CNC(=O)N3C)c2ccc(F)cc2O1 [Example 143, 1-[(4R)-2,2-diethyl-7-fluoro-3,4-dihydro-2H-chromen-4-yl]-3-(1-methyl-2-oxo-1,2,3,4-tetrahydroquinazolin-5-yl)urea]	–	19
CN1C(=O)NCc2c(NC(=O)N[C@@H]3CC(CF)(CF)Oc4c3ccc(Cl)c4F)cccc21 [Example 3, 1-[(4R)-7-chloro-8-fluoro-2,2-bis(fluoromethyl)-3,4-dihydro-2H-chromen-4-yl]-3-(1-methyl-2-oxo-1,2,3,4-tetrahydroquinazolin-5-yl)urea]	–	19
CN1C(=O)NCc2c(NC(=O)N[C@@H]3CC(C)(C)Oc4ccccc43)cccc21 [Example 4, 1-[(4R)-2,2-dimethyl-3,4-dihydro-2H-chromen-4-yl]-3-(1-methyl-2-oxo-1,2,3,4-tetrahydroquinazolin-5-yl)urea]	–	35

Other lines, results leading:

IC50 (human TRPV1 [1]) [nM]	human TRPV1 H^+ (max % remain) (human TRPV1 [2]) [%]	SMILES
130	45	CN1Cc2ccc(NC(=O)N[C@@H]3CCOc4cc(C(F)(F)F)ccc43)cc2NC1=O [Example 201, 1-(3-methyl-2-oxo-1,2,3,4-tetrahydroquinazolin-7-yl)-3-[(4R)-7-(trifluoromethyl)-3,4-dihydro-2H-chromen-4-yl]urea]
350	55	CN1Cc2ccc(NC(=O)N[C@@H]3CC(CF)(CF)Oc4c(F)cccc43)cc2NC1=O [Example 198, 1-[(4R)-8-fluoro-2,2-bis(fluoromethyl)-3,4-dihydro-2H-chromen-4-yl]-3-(3-methyl-2-oxo-1,2,3,4-tetrahydroquinazolin-7-yl)urea]
90	27	O=C1CCc2ccc(NC(=O)N[C@H]3CCOc4cc(OC(F)(F)F)ccc43)cc2N1 [Example 234, 1-(2-oxo-1,2,3,4-tetrahydroquinolin-7-yl)-3-[(4S)-7-(trifluoromethoxy)-3,4-dihydro-2H-chromen-4-yl]urea]
410	81	CN1C(=O)CCc2ccc(NC(=O)N[C@@H]3CCOc4ccc(F)cc43)cc21 [Example 282, 1-[(4R)-6-fluoro-3,4-dihydro-2H-chromen-4-yl]-3-(1-methyl-2-oxo-1,2,3,4-tetrahydroquinolin-7-yl)urea]
270	72	CN1C(=O)CCc2ccc(NC(=O)N[C@@H]3C[C@](C)(C(F)F)Oc4ccccc43)cc21 [Example 293, 1-[(2R,4R)-2-(difluoromethyl)-2-methyl-3,4-dihydro-2H-chromen-4-yl]-3-(1-methyl-2-oxo-1,2,3,4-tetrahydroquinolin-7-yl)urea]
–	60	CN1Cc2ccc(NC(=O)N[C@@H]3CC(C)(C)Oc4c(F)cccc43)cc2NC1=O [Example 210, 1-[(4R)-8-fluoro-2,2-dimethyl-3,4-dihydro-2H-chromen-4-yl]-3-(3-methyl-2-oxo-1,2,3,4-tetrahydroquinazolin-7-yl)urea]
–	79	CN1C(=O)CCc2ccc(NC(=O)N[C@@H]3CCOc4c3cccc4C(F)(F)F)cc21 [Example 284, 1-(1-methyl-2-oxo-1,2,3,4-tetrahydroquinolin-7-yl)-3-[(4R)-8-(trifluoromethyl)-3,4-dihydro-2H-chromen-4-yl]urea]
–	35	CN1C(=O)NCc2c(NC(=O)N[C@@H]3CC(C)(C)c4ccccc43)cccc21 [Example 158, 1-[(1R)-3,3-dimethyl-2,3-dihydro-1H-inden-1-yl]-3-(1-methyl-2-oxo-1,2,3,4-tetrahydroquinazolin-5-yl)urea]
